Columns and labels:
Mus musculus [1] = species on record: Mus musculus; assay: Tumor/blood ratio of the label compound in mice 30 min after post injection; format: functional
[2] = Biodistribution of the labeled compound in mice lungs 180 min after post-injection; format: ADME, organism-based, Lung; conditions: mouse, in vivo, 3 h
[3] = Biodistribution of the labeled compound in mice tumor 180 min after post-injection at adose 1.36 g; format: ADME, organism-based; conditions: mouse, in vivo, 3 h
[4] = Biodistribution of the labeled compound in mice stomach 180 min after post-injection; format: ADME, organism-based; conditions: mouse, in vivo, 3 h
[5] = Biodistribution of the labeled compound in mice bone 30 min after post-injection; format: ADME, organism-based, Bone element; conditions: mouse, in vivo, 0.5 h
[6] = Biodistribution of the labeled compound in mice muscle 60 min after post-injection; format: ADME, organism-based, Muscle tissue; conditions: mouse, in vivo, 1 h
[7] = Biodistribution of the labeled compound in mice blood 30 min after post-injection; format: ADME, organism-based; conditions: mouse, in vivo, 0.5 h
Mus musculus [8] = species on record: Mus musculus; assay: Tumor/muscle ratio of the label compound in mice 30 min after post injection; format: functional, Muscle tissue
[9] = Biodistribution of the labeled compound in mice kidney 180 min after post-injection; format: ADME, organism-based; conditions: mouse, in vivo, 3 h
[10] = Biodistribution of the labeled compound in mice spleen 180 min after post-injection; format: ADME, organism-based; conditions: mouse, in vivo, 3 h
Mus musculus [11] = species on record: Mus musculus; assay: Tumor/blood ratio of the label compound in mice 180 min after post injection; format: functional
[12] = Biodistribution of the labeled compound in mice lungs 30 min after post-injection; format: ADME, organism-based, Lung; conditions: mouse, in vivo, 0.5 h
[13] = Biodistribution of the labeled compound in mice stomach 30 min after post-injection; format: ADME, organism-based; conditions: mouse, in vivo, 0.5 h
[14] = Biodistribution of the labeled compound in mice liver 60 min after post-injection; format: ADME, organism-based; conditions: mouse, in vivo, 1 h
[15] = Biodistribution of the labeled compound in mice heart 30 min after post-injection; format: ADME, organism-based; conditions: mouse, in vivo, 0.5 h
Mus musculus [16] = species on record: Mus musculus; assay: Tumor/muscle ratio of the label compound in mice 60 min after post injection; format: functional, Muscle tissue
[17] = Biodistribution of the labeled compound in mice lungs 60 min after post-injection; format: ADME, organism-based, Lung; conditions: mouse, in vivo, 1 h
[18] = Biodistribution of the labeled compound in mice liver 30 min after post-injection; format: ADME, organism-based; conditions: mouse, in vivo, 0.5 h
[19] = Biodistribution of the labeled compound in mice tumor 30 min after post-injection at a dose of 1.42 g; format: ADME, organism-based; conditions: mouse, in vivo, 0.5 h
[20] = Biodistribution of the labeled compound in mice int+GB 60 min after post-injection; format: ADME, organism-based; conditions: mouse, in vivo, 1 h
[21] = Biodistribution of the labeled compound in mice muscle 180 min after post-injection; format: ADME, organism-based, Muscle tissue; conditions: mouse, in vivo, 3 h
[22] = Biodistribution of the labeled compound in mice spleen 60 min after post-injection; format: ADME, organism-based; conditions: mouse, in vivo, 1 h
Mus musculus [23] = species on record: Mus musculus; assay: Tumor/muscle ratio of the label compound in mice 180 min after post injection; format: functional, Muscle tissue
[24] = Biodistribution of the labeled compound in mice spleen 30 min after post-injection; format: ADME, organism-based; conditions: mouse, in vivo, 0.5 h
[25] = Biodistribution of the labeled compound in mice int +GB 30 min after post-injection; format: ADME, organism-based; conditions: mouse, in vivo, 0.5 h
[26] = Biodistribution of the labeled compound in mice blood 180 min after post-injection; format: ADME, organism-based; conditions: mouse, in vivo, 3 h
[27] = Biodistribution of the labeled compound in mice int+GB 180 min after post-injection; format: ADME, organism-based; conditions: mouse, in vivo, 3 h
[28] = Biodistribution of the labeled compound in mice blood 60 min after post-injection; format: ADME, organism-based; conditions: mouse, in vivo, 1 h
[29] = Biodistribution of the labeled compound in mice heart 60 min after post-injection; format: ADME, organism-based; conditions: mouse, in vivo, 1 h
[30] = Biodistribution of the labeled compound in mice stomach 60 min after post-injection; format: ADME, organism-based; conditions: mouse, in vivo, 1 h
Mus musculus [31] = species on record: Mus musculus; assay: Tumor/blood ratio of the label compound in mice 60 min after post injection; format: functional
[32] = Biodistribution of the labeled compound in mice bone 60 min after post-injection; format: ADME, organism-based, Bone element; conditions: mouse, in vivo, 1 h
[33] = Biodistribution of the labeled compound in mice liver 180 min after post-injection; format: ADME, organism-based; conditions: mouse, in vivo, 3 h
[34] = Biodistribution of the labeled compound in mice kidney 30 min after post-injection; format: ADME, organism-based; conditions: mouse, in vivo, 0.5 h
[35] = Biodistribution of the labeled compound in mice tumor 60 min after post-injection at adose 1.44 g; format: ADME, organism-based; conditions: mouse, in vivo, 1 h
[36] = Biodistribution of the labeled compound in mice bone 180 min after post-injection; format: ADME, organism-based, Bone element; conditions: mouse, in vivo, 3 h
[37] = Biodistribution of the labeled compound in mice heart 180 min after post-injection; format: ADME, organism-based; conditions: mouse, in vivo, 3 h
[38] = Biodistribution of the labeled compound in mice Muscle 30 min after post-injection; format: ADME, organism-based, Muscle tissue; conditions: mouse, in vivo, 0.5 h
[39] = Biodistribution of the labeled compound in mice kidney 60 min after post-injection; format: ADME, organism-based; conditions: mouse, in vivo, 1 h

Cc1ncc([N+](=O)[O-])n1CCOC(=S)[S-].[Na+] [METRONIDAZOLE XANTHATE]
Ratio (Mus musculus [1]): 0.2
Biodistribution [2]: 0.75
Biodistribution [3]: 0.41
Biodistribution [4]: 0.71
Biodistribution [5]: 2.59
Biodistribution [6]: 6.43
Biodistribution [7]: 11.45
Ratio (Mus musculus [8]): 1.19
Biodistribution [9]: 2.87
Biodistribution [10]: 0.27
Ratio (Mus musculus [11]): 0.62
Biodistribution [12]: 1.59
Biodistribution [13]: 1.68
Biodistribution [14]: 23.53
Biodistribution [15]: 0.38
Ratio (Mus musculus [16]): 2.15
Biodistribution [17]: 1.09
Biodistribution [18]: 29.32
Biodistribution [19]: 0.4
Biodistribution [20]: 20.19
Biodistribution [21]: 4.2
Biodistribution [22]: 0.34
Ratio (Mus musculus [23]): 3.35
Biodistribution [24]: 0.25
Biodistribution [25]: 12.46
Biodistribution [26]: 3.95
Biodistribution [27]: 32.52
Biodistribution [28]: 6.75
Biodistribution [29]: 0.27
Biodistribution [30]: 0.74
Ratio (Mus musculus [31]): 0.36
Biodistribution [32]: 2.43
Biodistribution [33]: 18.37
Biodistribution [34]: 4.25
Biodistribution [35]: 0.43
Biodistribution [36]: 2.27
Biodistribution [37]: 0.27
Biodistribution [38]: 11.19
Biodistribution [39]: 3.18

Reference: ChEMBL document CHEMBL1140254, “A novel [99mTc[triple bond]N]2+ complex of metronidazole xanthate as a potential agent for targeting hypoxia” (Bioorg Med Chem Lett, 2005)
